The test system of experiment [1] is Human platelet aggregation caused by ADP. Briefly: Inhibition of ADP-induced platelet aggregation (Mimic-human PRP). The format is cell-based. Particulars: 20 μM ADP, human platelet concentrate diluted with PPP, absorption at 595 nm. An outline of the steps: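 Human PRP diluted with PPP to 3–4×10^8 platelets/mL was preincubated 20 min at room temperature with compound (0.01–30 μM, DMSO), then stimulated with 20 μM ADP. Aggregation read as A595 increase at 3 min versus 0 and 20 μM ADP controls; Ki from sigmoidal non-linear regression.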

The next experiment addresses T1, Human P2Y12 receptor (Homo sapiens, UniProt Q9H244).
T1 construct: expressed in transfected cells; host or cells: HEK cells
The experiment can be described thus: Human P2Y12 receptor cell membrane binding assay with [3H] 2-Mes-ADP. Particulars: 1 nM [3H] 2-Mes-ADP, membranes of HEK cells expressing P2Y12 receptor; read-out: Binding activity (IC50). Put shortly:
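Membranes from HEK cells expressing human P2Y12 were incubated with compound and 1 nM [3H]2-MeS-ADP for 1 h at room temperature. Bound radioactivity was collected by GF/B filtration.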

Molecules are shown by their SMILES.

T1 sequence (Q9H244 whole entry): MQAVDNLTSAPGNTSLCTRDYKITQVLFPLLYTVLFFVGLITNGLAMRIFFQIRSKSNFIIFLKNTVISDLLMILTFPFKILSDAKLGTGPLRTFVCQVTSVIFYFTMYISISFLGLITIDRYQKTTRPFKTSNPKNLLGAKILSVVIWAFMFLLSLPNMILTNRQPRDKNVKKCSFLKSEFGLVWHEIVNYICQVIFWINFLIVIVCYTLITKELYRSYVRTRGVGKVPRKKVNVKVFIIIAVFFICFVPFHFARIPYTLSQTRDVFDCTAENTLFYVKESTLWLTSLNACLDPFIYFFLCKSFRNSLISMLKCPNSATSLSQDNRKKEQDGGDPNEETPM

In experiment [1], `CCCc1cc2c(N3CCn4c(nnc4C(F)(F)F)C3)nc(OCC3CCCO3)nc2s1` (centres unmarked) [Example 3-6, 7-[6-Propyl-2-(tetrahydro-furan-2-ylmethoxy)-thieno[2,3-d]pyrimidin-4-yl]-3-trifluoromethyl-5,6,7,8-tetrahydro-[1,2,4]triazolo[4,3-a]pyrazine] came in with a Ki of 140 nM. Further, the IC50 at Human P2Y12 receptor amounted to 690 nM.

In experiment [1], `CCCc1cc2c(N3CCn4c(nnc4C(F)(F)F)C3)nc(OC3CCN(C)C3)nc2s1` (centres unmarked) [Example 3-7, 7-[2-(1-Methyl-pyrrolidin-3-yloxy)-6-propyl-thieno[2,3-d]pyrimidin-4-yl]-3-trifluoromethyl-5,6,7,8-tetrahydro-[1,2,4]triazolo[4,3-a]pyrazine] registered a Ki of 300 nM. Besides, at Human P2Y12 receptor, the IC50 was determined as 540 nM.

As to `CCCc1cc2c(N3CCn4c(nnc4C(F)(F)F)C3)nc(OCC(=O)OC)nc2s1` [Example 3-8, [6-Propyl-4-(3-trifluoromethyl-5,6-dihydro-8H-[1,2,4]triazolo[4,3-a]pyrazin-7-yl)-thieno[2,3-d]pyrimidin-2-yloxy]-acetic acid methyl ester], the affinity in experiment [1], expressed as Ki, was 610 nM. The IC50 on Human P2Y12 receptor stood at 331 nM.

Compound `CCCc1cc2c(N3CCn4c(nnc4C(F)(F)F)C3)nc(OCC(=O)O)nc2s1` [Example 3-9, [6-Propyl-4-(3-trifluoromethyl-5,6-dihydro-8H-[1,2,4]triazolo[4,3-a]pyrazin-7-yl)-thieno[2,3-d]pyrimidin-2-yloxy]-acetic acid] gave a Ki in experiment [1] of 3700 nM. Moreover, the IC50 on Human P2Y12 receptor amounted to 826 nM.

On to `CCCc1cc2c(N3CCn4c(nnc4C(F)(F)F)C3)nc(OCCCO)nc2s1` [Example 3-10, 3-[6-Propyl-4-(3-trifluoromethyl-5,6-dihydro-8H-[1,2,4]triazolo[4,3-a]pyrazin-7-yl)-thieno[2,3-d]pyrimidin-2-yloxy]-propan-1-ol], for which the Ki in experiment [1] turned out to be 64 nM. Besides, at Human P2Y12 receptor, the IC50 turned out to be 140 nM.

`CCCc1cc2c(N3CCn4c(nnc4C(F)(F)F)C3)nc(OCCC(=O)O)nc2s1` [Example 3-11, 3-[6-Propyl-4-(3-trifluoromethyl-5,6-dihydro-8H-[1,2,4]triazolo[4,3-a]pyrazin-7-yl)-thieno[2,3-d]pyrimidin-2-yloxy]-propionic acid] registered a Ki in experiment [1] of 70 nM. Moreover, on Human P2Y12 receptor, the IC50 came out at 72 nM.

Compound `CCCc1cc2c(N3CCn4c(nnc4C(F)(F)F)C3)nc(OCCC(=O)OC(C)C)nc2s1` [Example 3-12, 3-[6-Propyl-4-(3-trifluoromethyl-5,6-dihydro-8H-[1,2,4]triazolo[4,3-a]pyrazin-7-yl)-thieno[2,3-d]pyrimidin-2-yloxy]-propionic acid isopropyl ester] had a Ki in experiment [1] of 50 nM. Also, the half-maximal inhibitory concentration (IC50) at Human P2Y12 receptor worked out at 160 nM.

Consider `CCCc1cc2c(N3CCn4c(nnc4C(F)(F)F)C3)nc(OCCC(=O)OCOC(=O)C(C)(C)C)nc2s1` [Example 3-13, 2,2-Dimethyl-propionic Acid 3-[6-propyl-4-(3-trifluoromethyl-5,6-dihydro-8H-[1,2,4]triazolo[4,3-a]pyrazin-7-yl)-thieno[2,3-d]pyrimidin-2-yloxy]-propionyloxymethyl ester], for which the affinity in experiment [1] corresponds to a Ki of 430 nM. Besides, the IC50 at Human P2Y12 receptor is 410 nM.

Consider `CCCc1cc2c(N3CCn4c(nnc4C(F)(F)F)C3)nc(OCCC(OC)OC)nc2s1` [Example 3-14, 7-[2-(3,3-Dimethoxy-propoxy)-6-propyl-thieno[2,3-d]pyrimidin-4-yl]-3-trifluoromethyl-5,6,7,8-tetrahydro-[1,2,4]triazolo[4,3-a]pyrazine], for which affinity in experiment [1] was put at a Ki of 1100 nM. In addition, the 50% inhibitory concentration (IC50) at Human P2Y12 receptor was determined as 240 nM.

Turning to `CCCc1cc2c(N3CCn4c(nnc4C(F)(F)F)C3)nc(OC3CCCC3)nc2s1` [Example 3-15, 7-(2-Cyclopentyloxy-6-propyl-thieno[2,3-d]pyrimidin-4-yl)-3-trifluoromethyl-5,6,7,8-tetrahydro-[1,2,4]triazolo[4,3-a]pyrazine], the Ki in experiment [1] stood at 300 nM. Moreover, the IC50 at Human P2Y12 receptor turned out to be 53 nM.

The compound `CCCc1cc2c(N3CCn4c(nnc4C(F)(F)F)C3)nc(OCc3ccccc3)nc2s1` [Example 3-16, 7-(2-Benzyloxy-6-propyl-thieno[2,3-d]pyrimidin-4-yl)-3-trifluoromethyl-5,6,7,8-tetrahydro-[1,2,4]triazolo[4,3-a]pyrazine] displayed a Ki in experiment [1] of 27600 nM. Moreover, the IC50 on Human P2Y12 receptor was 39 nM.

Take `CCCCOc1nc(N2CCn3c(nnc3C(F)(F)F)C2)c2cc(CCC)sc2n1` [Example 3-17, 7-(2-Butoxy-6-propyl-thieno[2,3-d]pyrimidin-4-yl)-3-trifluoromethyl-5,6,7,8-tetrahydro-[1,2,4]triazolo[4,3-a]pyrazine]: in experiment [1], the Ki stood at 3200 nM. For the same compound, the IC50 on Human P2Y12 receptor came to 110 nM.

`CCCc1cc2c(N3CCn4c(nnc4C(F)(F)F)C3)nc(OCc3nc(CC(=O)OCC)co3)nc2s1` [Example 3-18, {2-[6-Propyl-4-(3-trifluoromethyl-5,6-dihydro-8H-[1,2,4]triazolo[4,3-a]pyrazin-7-yl)-thieno[2,3-d]pyrimidin-2-yloxymethyl]-oxazol-4-yl}-acetic acid ethyl ester] returned a Ki in experiment [1] of 4300 nM. The IC50 at Human P2Y12 receptor is 400 nM.

For `CCCc1cc2c(N3CCn4c(nnc4C(F)(F)F)C3)nc(OCc3nc(CC(=O)O)co3)nc2s1` [Example 3-19, {2-[6-Propyl-4-(3-trifluoromethyl-5,6-dihydro-8H-[1,2,4]triazolo[4,3-a]pyrazin-7-yl)-thieno[2,3-d]pyrimidin-2-yloxymethyl]-oxazol-4-yl}-acetic acid], the Ki in experiment [1] was > 4000 nM. At Human P2Y12 receptor, the IC50 is 170 nM.

The compound `CCCc1cc2c(N3CCn4c(nnc4C(F)(F)F)C3)nc(OCc3cocn3)nc2s1` [Example 3-20, 7-[2-(Oxazol-4-ylmethoxy)-6-propyl-thieno[2,3-d]pyrimidin-4-yl]-3-trifluoromethyl-5,6,7,8-tetrahydro-[1,2,4]triazolo[4,3-a]pyrazine] showed a Ki in experiment [1] of 840 nM. Besides, the IC50 at Human P2Y12 receptor was 84 nM.

Compound `CCCc1cc2c(N3CCn4c(nnc4C(F)(F)F)C3)nc(OCCc3cc(F)cc(F)c3F)nc2s1` [Example 3-21, 7-{6-Propyl-2-[2-(2,3,5-trifluoro-phenyl)-ethoxy]-thieno[2,3-d]pyrimidin-4-yl}-3-trifluoromethyl-5,6,7,8-tetrahydro-[1,2,4]triazolo[4,3-a]pyrazine] displayed a Ki in experiment [1] of 390 nM. Moreover, on Human P2Y12 receptor, the IC50 is 110 nM.

With `CCCc1cc2c(N3CCn4c(nnc4C(F)(F)F)C3)nc(OCc3ccccn3)nc2s1` [Example 3-23, 7-[6-Propyl-2-(pyridin-2-ylmethoxy)-thieno[2,3-d]pyrimidin-4-yl]-3-trifluoromethyl-5,6,7,8-tetrahydro-[1,2,4]triazolo[4,3-a]pyrazine], the Ki in experiment [1] was > 4000 nM. The IC50 on Human P2Y12 receptor was 370 nM.

`CCCc1cc2c(N3CCn4c(nnc4C(F)(F)F)C3)nc(OCc3cccnc3)nc2s1` [Example 3-24, 7-[6-Propyl-2-(pyridin-3-ylmethoxy)-thieno[2,3-d]pyrimidin-4-yl]-3-trifluoromethyl-5,6,7,8-tetrahydro-[1,2,4]triazolo[4,3-a]pyrazine] had a Ki in experiment [1] of 1480 nM. For the same compound, at Human P2Y12 receptor, the concentration for half-maximal inhibition (IC50) amounted to 160 nM.

In experiment [1], `CCCc1cc2c(N3CCn4c(nnc4C(F)(F)F)C3)nc(OCc3ccncc3)nc2s1` [Example 3-25, 7-[6-Propyl-2-(pyridin-4-ylmethoxy)-thieno[2,3-d]pyrimidin-4-yl]-3-trifluoromethyl-5,6,7,8-tetrahydro-[1,2,4]triazolo[4,3-a]pyrazine] displayed a Ki of 930 nM. Further, the IC50 on Human P2Y12 receptor worked out at 170 nM.

Turning to `CCCc1cc2c(N3CCn4c(nnc4C(F)(F)F)C3)nc(OC3CNC3)nc2s1` [Example 3-26, 7-[2-(Azetidin-3-yloxy)-6-propyl-thieno[2,3-d]pyrimidin-4-yl]-3-trifluoromethyl-5,6,7,8-tetrahydro-[1,2,4]triazolo[4,3-a]pyrazine], in experiment [1], the Ki turned out to be 25 nM. Also, the IC50 at Human P2Y12 receptor turned out to be 149 nM.

With `CCCc1cc2c(N3CCn4c(nnc4C(F)(F)F)C3)nc(O)nc2s1` [Example 3-27, 6-Propyl-4-(3-trifluoromethyl-5,6-dihydro-8H-[1,2,4]triazolo[4,3-a]pyrazin-7-yl)-thieno[2,3-d]pyrimidin-2-ol], in experiment [1], the Ki was determined as 8800 nM. Further, the IC50 at Human P2Y12 receptor was 5380 nM.

For `CCCc1cc2c(N3CCn4c(nnc4C(F)(F)F)C3)nc(Oc3ccccc3)nc2s1` [Example 3-28, 7-(2-Phenoxy-6-propyl-thieno[2,3-d]pyrimidin-4-yl)-3-trifluoromethyl-5,6,7,8-tetrahydro-[1,2,4]triazolo[4,3-a]pyrazine], the affinity in experiment [1], expressed as Ki, was 9700 nM. The IC50 on Human P2Y12 receptor was determined as 179 nM.

As to `CCCc1cc2c(N3CCn4c(nnc4C(F)(F)F)C3)nc(Oc3cccnc3)nc2s1` [Example 3-29, 7-[6-Propyl-2-(pyridin-3-yloxy)-thieno[2,3-d]pyrimidin-4-yl]-3-trifluoromethyl-5,6,7,8-tetrahydro-[1,2,4]triazolo[4,3-a]pyrazine], the affinity in experiment [1] corresponds to a Ki of 150 nM. Also, the IC50 on Human P2Y12 receptor turned out to be 220 nM.

For `CCCc1cc2c(N3CCn4c(nnc4C(F)(F)F)C3)nc(Oc3cccc(C(=O)OC)c3)nc2s1` [Example 3-30, 3-[6-Propyl-4-(3-trifluoromethyl-5,6-dihydro-8H-[1,2,4]triazolo[4,3-a]pyrazin-7-yl)-thieno[2,3-d]pyrimidin-2-yloxy]-benzoic acid methyl ester], in experiment [1], the Ki was > 4000 nM. Moreover, the IC50 at Human P2Y12 receptor was determined as 280 nM.

`CCCc1cc2c(N3CCn4c(nnc4C(F)(F)F)C3)nc(Oc3cccc(C(=O)O)c3)nc2s1` [Example 3-31, 3-[6-Propyl-4-(3-trifluoromethyl-5,6-dihydro-8H-[1,2,4]triazolo[4,3-a]pyrazin-7-yl)-thieno[2,3-d]pyrimidin-2-yloxy]-benzoic acid]: the Ki in experiment [1] was 2000 nM. Moreover, the IC50 at Human P2Y12 receptor worked out at 196 nM.

The Ki is the dissociation constant of the complex between target and ligand, obtained from inhibition or displacement. Higher therefore signals a looser hold on the target. A word on the IC50: it is the point on the concentration scale where inhibition reaches its midpoint.

The record behind these values is patent publication US20110166121A1 (LG LIFE SCIENCES LTD., priority 2008, published 2011).
